In US20240150334A1, “HSD17B13 INHIBITORS AND/OR DEGRADERS” (Pfizer Inc., priority 2022, published 2024):
pIC50: −log10 of the molar value. Structures can show the parent of a compound that is named as a salt.

Tests used:
[1] = target: HSD17B13 enzyme (Homo sapiens (Human), UniProt Q7Z5P4); assay: hHSD17B13 IC50 Assay (FAC beta-estradiol), purified protein enzyme activity assay with NAD(P)H-Glo luciferase readout; assay type: biochemical; settings: geometric mean, 12 μM FAC beta-estradiol, 500 μM NAD+, read-out: hHSD17B13_IC50 GMean IC50
Sequence of HSD17B13 enzyme (Q7Z5P4 20-300): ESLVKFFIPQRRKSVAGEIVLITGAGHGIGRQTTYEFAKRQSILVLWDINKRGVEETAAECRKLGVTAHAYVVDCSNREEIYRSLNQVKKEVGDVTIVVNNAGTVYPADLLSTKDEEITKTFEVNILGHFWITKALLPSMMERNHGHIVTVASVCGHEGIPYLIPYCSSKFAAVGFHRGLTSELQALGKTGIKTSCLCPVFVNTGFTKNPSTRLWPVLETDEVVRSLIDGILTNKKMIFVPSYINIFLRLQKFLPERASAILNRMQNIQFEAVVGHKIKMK
Summary of the method: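 Purified human HSD17B13 (30 nM FAC) incubated with compound, beta-estradiol and NAD+ for 2 h at room temperature in the dark. NADH formation was detected by NAD(P)H-Glo luminescence after 1 h. RLUs normalized to uninhibited enzyme (vehicle) as zero effect.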

[2] = target: wild type human HSD17B13 (Homo sapiens (Human), UniProt Q7Z5P4); assay: HEK_Beta-Est LCMS_IC50_Tekcel, whole-cell HEK-HSD17B13 inhibition assay, estrone production by LCMS; assay type: cell-based; settings: geometric mean, HEK cells stably expressing wild type human HSD17B13, 25 μM FAC beta-estradiol, read-out: HEK_Beta-Est LCMS_IC50—Tekcel GMean IC50
Sequence of wild type human HSD17B13 (Q7Z5P4 20-300): as above
Summary of the method: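 HEK cells expressing wild-type human HSD17B13 were preincubated with compound for 1 hour at 37° C, then the beta-estradiol/NAD+ reaction ran for 2 hours at 37° C. Estrone formed was quantified by LCMS as product area ratio and normalized to uninhibited vehicle-control wells.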

Row | pIC50 [1] | pIC50 [2] | SMILES
1 | 8.00 | 6.34 | Cc1ccc(-c2noc([C@]34CC[C@](CNC(=O)c5cc(F)c(O)c(F)c5)(CC3)CC4)n2)nn1 [Example 123, 3,5-difluoro-4-hydroxy-N-({4-[3-(6-methylpyridazin-3-yl)-1,2,4-oxadiazol-5-yl]bicyclo[2.2.2]octan-1-yl}methyl)benzamide]
2 | 8.02 | 6.37 | O=C(NC[C@H]1CC[C@H](n2cc3ccc(-c4ccnnc4)cc3n2)CC1)c1cc(F)c(O)c(F)c1 [Example 71, 3,5-difluoro-4-hydroxy-N-({(1r,4r)-4-[6-(pyridazin-4-yl)-2H-indazol-2-yl]cyclohexyl}methyl)benzamide]
3 | 8.19 | 6.51 | O=C(NC[C@H]1CC[C@H](c2nc(-c3ncc(C(F)(F)F)cn3)no2)CC1)c1cc(F)c(O)cc1F [Example 198, 2,5-difluoro-4-hydroxy-N-{[(1r,4r)-4-{3-[5-(trifluoromethyl)pyrimidin-2-yl]-1,2,4-oxadiazol-5-yl}cyclohexyl]methyl} benzamide]
4 | 8.00 | 6.40 | O=C(NC[C@H]1CC[C@H](n2cc3cc(Cl)ncc3n2)CC1)c1cc(F)c(O)c(F)c1 [Example 187, N-{[(1r,4r)-4-(5-chloro-2H-pyrazolo[3,4-c]pyridin-2-yl)cyclohexyl]methyl}-3,5-difluoro-4-hydroxybenzamide]
5 | 8.37 | 6.51 | Cn1cc(-c2ccc3cn([C@H]4CC[C@H](CNC(=O)c5cc(F)c(O)c(F)c5)CC4)nc3c2)c(C(F)F)n1 [Example 34, N-{[(1r,4r)-4-{6-[3-(difluoromethyl)-1-methyl-1H-pyrazol-4-yl]-2H-indazol-2-yl}cyclohexyl]methyl}-3,5-difluoro-4-hydroxybenzamide]
6 | 7.74 | 6.35 | O=C(NC[C@H]1CC[C@H](c2nc(-c3ccc(C(F)(F)F)cn3)no2)CC1)c1cc(F)c(O)c(F)c1F [Example 210, 2,3,5-trifluoro-4-hydroxy-N-{[(1r,4r)-4-{3-[5-(trifluoromethyl)pyridin-2-yl]-1,2,4-oxadiazol-5-yl}cyclohexyl]methyl}benzamide]
7 | 8.42 | 6.72 | N#Cc1ccc(-c2ccc3cn([C@H]4CC[C@H](CNC(=O)c5cc(F)c(O)c(F)c5)CC4)nc3c2)cc1 [Example 70, N-({(1r,4r)-4-[6-(4-cyanophenyl)-2H-indazol-2-yl]cyclohexyl}methyl)-3,5-difluoro-4-hydroxybenzamide]
8 | 7.80 | 6.40 | CS(=O)(=O)c1ccc(-c2noc([C@H]3CC[C@H](CNC(=O)c4cc(F)c(O)c(F)c4)CC3)n2)cc1 [Example 128, 3,5-difluoro-4-hydroxy-N-{[(1r,4r)-4-{3-[4-(methanesulfonyl)phenyl]-1,2,4-oxadiazol-5-yl}cyclohexyl]methyl} benzamide]
9 | 8.15 | 6.66 | COc1ccc(-c2noc([C@]34CC[C@](CNC(=O)c5cc(F)c(O)c(F)c5F)(CC3)CC4)n2)nn1 [Example 15, 2,3,5-Trifluoro-4-hydroxy-N-({4-[3-(6-methoxypyridazin-3-yl)-1,2,4-oxadiazol-5-yl]bicyclo[2.2.2]octan-1-yl}methyl)benzamide]
10 | 7.85 | 6.51 | COc1cccc2nn([C@H]3CC[C@H](CNC(=O)c4cc(F)c(O)c(F)c4)CC3)cc12 [Example 122, 3,5-difluoro-4-hydroxy-N-{[(1r,4r)-4-(4-methoxy-2H-indazol-2-yl)cyclohexyl]methyl} benzamide]
11 | 7.85 | 6.36 | O=C(NC[C@H]1CC[C@H](n2cc3ccc(Cl)cc3n2)CC1)c1cc(F)c(O)cc1F [Example 144, N-{[(1r,4r)-4-(6-chloro-2H-indazol-2-yl)cyclohexyl]methyl}-2,5-difluoro-4-hydroxybenzamide, trifluoroacetate salt]
12 | 7.66 | 6.36 | O=C(NC[C@]12CC[C@](n3cc4cc(C(F)(F)F)ccc4n3)(CC1)CC2)c1cc(F)c(O)c(F)c1F [Example 193, 2,3,5-trifluoro-4-hydroxy-N-({4-[5-(trifluoromethyl)-2H-indazol-2-yl]bicyclo [2.2.2]octan-1-yl}methyl)benzamide]

Row | SMILES | pIC50 [1] | pIC50 [2]
13 | O=C(NC[C@]12CC[C@](c3noc(-c4ccc(OS(=O)(=O)F)cc4)n3)(CC1)CC2)c1cc(F)c(O)c(F)c1 [Example 126, 4-(3-{4-[(3,5-difluoro-4-hydroxybenzamido)methyl]bicyclo[2.2.2]octan-1-yl}-1,2,4-oxadiazol-5-yl) phenyl sulfurofluoridate] | 7.80 | 6.37
